Consider one molecule from patent US12508280B2, “Formulations for improving gut health” (DSM IP ASSETS B.V., priority 2018, dated 2025).

Each structure is given as a SMILES string.

Assay [1] deals with Pepsin, pancreatin, viscozyme. The assay is described as follows: In vitro enzymatic digestion with exogenous enzymes. The assay is classed as biochemical. As for the experimental part:
Erlenmeyer flasks (100 mL total volume) contained 0.5 g of substrate alone or supplemented with the three eubiotics were incubated in duplicates for each treatment, to determine the in vitro enzymatic digestibility following the three-step method of Boisen and Fernandez (1997). The digestibility was determined with: • [1] Pepsin • [2] Pepsin+pancreatin • [3] Pepsin+pancreatin+viscozyme B. With Gastric Contents and Small Intestine Contents
For gas production, results were analyzed for each incubation time as a split-plot design, considering the donor pig as a block, the contents (fresh vs. frozen) as the main plot and the treatment as the subplot. The same design was used to analyze the results obtained from digestive contents (gastric vs. small intestine) as the main plot. In vitro enzymatic results were not statistically analyzed as there were no sources of experimental variability. Differences were considered significant when P<0.05, and a trend for significance was considered when 0.05 ? P<0.10 and, when significant, differences were compared by the Tukey t test at P<0.05.

A short description of assay [2]: Broiler feeding trial, cecal 1H-NMR metabolomic analysis. The assay is classed as in vivo, chickens. On the procedure:
A total of 63 samples have been provided to the Bio-NMR Group of Department of Agricultural and Food Science and Interdepartmental Centre for Industrial Agri-Food Research (CIRI) of University of Bologna, Italy, including 21 cecal samples, collected from the first time point, 21 from the second time point and 21 from the third time were available.
Preliminary analysis were performed on 63 samples subdivided as follows: control samples (A) fed with 10 mg/kg of Vit. B2, treated samples (B) fed with 50 mg/kg of Vit. B2, treated samples (C) fed with 100 mg/kg of Vit. B2. Samples were prepared for nuclear magnetic resonance (NMR) analysis by vortex mixing for 5 minutes stool with 1 mL of deionized water, followed by centrifugation for 10 minutes at 14,000 rpm and 4° C. About […] of supernatant was added to 100 μL of a D2O 1.5 M phosphate buffer solution containing 0.1% TSP (3-(trimethylsilyl)propionic acid-d4), NaN3 2 mM, set at pH 7.40. Before analysis, samples were centrifuged for 10 minutes again and then 590 uL transferred into an NMR tube.
Proton NMR (^1H-NMR) spectra were recorded at 298 K with an AVANCE III spectrometer (Bruker, Milan, Italy) operating at a frequency of 600.13 MHz. The Hydrogen Deuterium Oxide (HOD) residual signal was suppressed by presaturation, whereas broad signals from slowly tumbling molecules were removed by including a Carr-Purcell-Meiboom-Gill filter27 to a free induction decay sequence. The filter was made up by a train of 400 echoes separated by 800 μs, for a total time of 328 ms. Each spectrum was acquired by summing up 256 transients using 32 K data points over a 7211.54-Hz spectrum (for an acquisition time of 2.27 seconds). The recycle delay was set to 8 seconds, keeping into consideration the longitudinal relaxation time of the protons under investigation. Each spectrum was processed with Top Spin 3.0 (Bruker) by using an automatic command apk0.noe, which performs in one shot the baseline and phase correction and by applying a line-broadening factor of 1 Hz. […]

The next assay relates to cecal microbiota. The assay is described as follows: Broiler feeding trial, cecal microbiota 16S rRNA sequencing. The assay is classed as in vivo, chickens. From the text: Each group was sampled three times (i.e., S1=14 days, S2=28 days, S3=38/42 days) in specific days corresponding to when the feed will be changed along the feeding program.
During each sampling (i.e., S1, S2 and S3) a total of 40 birds/group were humanely euthanized and 9 litter samples will be collected (i.e., 3 samples/group).
DNA extraction from cecal samples: The commercial kit DNeasy PowerSoil kit (Qiagen, Hilden, Germany) has been chosen and applied to all available cecal samples following the manufacturer instructions. DNA yield was measured using a Nanodrop instrument.
16S rRNA gene PCR amplification and sequencing. The V3-V4 hypervariable region of the 16S rRNA gene was PCR-amplified using 341F and 785R primers with Illumina overhang adaptors sequences. Amplicons purification was performed by using AMPure XP Beads magnetic beads (Beckman Coulter, Brea, CA). For the indexed library preparation, the Nextera XT DNA Library Prep Kit (Illumina, San Diego, CA) was used. A further magnetic beads purification step was performed and libraries quantified using the Qubit 3.0 fluorimeter (Invitrogen), then pooled at 4 nM. The library pool was denatured with NaOH 0.2 N and diluted to […]. Sequencing was performed on Illumina MiSeq platform using a 2×250 bp paired end protocol, according to the manufacturer's instructions (Illumina).
Bioinformatics and statistics. Raw sequences were processed using a pipeline combining PANDAseq (Masella et al, 2012) and QIIME2 (Caporaso et al, 201 O; qiime2.org). After chimera sequences removal, high-quality reads were filtered and binned into high-resolution operational taxonomic units (OTUs) according to the taxonomic threshold of 99% through an open-reference strategy performed with dada2 (Callahan et al, 2016). Taxonomy was assigned using the vsearch classifier (Rognes et al, 2016) and SILVA database as reference (Quast et al, 2013). Alpha diversity was measured using Faith PD index and number of observed OTUs. Statistics was performed using R Studio software version 1.0.136 running on R software 3.1.3 (r-project.org/), implemented with the libraries vegan, made4, PMCMR. Beta diversity was estimated by computing weighted UniFrac distances and visualized by Principal Coordinates Analyses (PCoAs). The significance of separation among groups of samples was tested by permutational multivariate analysis of variance using the function adonis of the vegan package. Bacterial phylogenetic groups (genus, family, phylum) showing a minimum relative abundance of 0.5% in at least the 1% of the samples were kept for further analysis and graphical visualization. Compositional differences among group of samples were tested using Kruskal-Wallis test. P values were corrected for multiple comparisons using the Benjamini-Hochberg method.

On to `Cc1cc2nc3c(=O)[nH]c(=O)nc-3n(C[C@H](O)[C@H](O)[C@H](O)CO)c2cc1C` [Vitamin B2, riboflavin], for which, in assay [1], the “substrate digestibility incubated in (P+Pancreatin) and/or (P+P+Viscozyme)” value was “no differences among treatments were observed” and the “substrate digestibility incubated in pepsin-HCl” value was “higher than that of other treatments”. Moreover, the “cecal propionate (1H-NMR integral area)” value in assay [2] (groups A, B, C, T0, T1, T2) is “A tendency to increase”. In addition, the “cecal butyrate (1H-NMR integral area)” value in assay [2] (groups A, B, C, T0, T1, T2 (14, 28, 38/42 days)) is “not affected by both treatment and time”. Also, the “cecal uracil (1H-NMR integral area)” value in assay [2] (samples C (100 mg/kg Vit. B2) vs others) is reported as “always higher than the others”. In addition, in the assay with cecal microbiota (Group B (50 mg/kg riboflavin), all available time points), the “abundance of family Bacteroidaceae and genus Bacteroides in cecum” value is recorded as “significantly higher abundances”. Also, in the assay with cecal microbiota (Group B (control diet+50 mg/kg riboflavin) vs groups A and C), the “cecal microbiota structure (beta diversity, UniFrac PCoA)” value is listed as “different longitudinal trajectory”. Besides, the “abundance of Bifidobacteriaceae in cecum” value in the assay on cecal microbiota (Group C (100 mg/kg riboflavin), from T1 to T3, significant at T2 and T3) is “progressive increase”. For the same molecule, in the assay with cecal microbiota (Group C (control diet+100 mg/kg riboflavin), time points T2 and T3, P<0.0001), the “cecal species richness (observed OTUs)” value was “significant increase in species richness”. In addition, the “[Eubacterium] coprostanoligenes group abundance in cecum” value in the assay with cecal microbiota (Groups B and C vs control group A, T2) is given as “higher abundance”.
